The values below come from patent US10028949B2, “Parenteral formulations of lipophilic pharmaceutical agents and methods for preparing and using the same” (priority 2011, dated 2018).

In data set [1] the test system is Aspergillus fumigatus (ATCC strain 90906). Nature of the data set: Mold susceptibility test (MIC, CLSI M38A). As to conditions: Table 4, read-out at 48 hr, range tested 32 ug/ml to 0.03 ug/ml. The format is cell-based. An excerpt: To further determine the antifungal activity of the compounds in the new formulation systems the inventors investigated the efficacy of the various agents against additional strains of mucor and Aspergillus (The Rhizomucor was a clinical isolate from a patient isolate) and the Aspergillus fumigatus (ATCC strain 90906) used was as previously described. Again, the susceptibility tests were set-up using the standardized test method (CLSI M38A). The used drugs were provided in the described final use-formulation VE-acetone/PEG/D5W. All drugs were diluted in RPMI-Mops medium: YeastOne, Sensititer (Lot 151416SA, expiration date in 2011).
Briefly, susceptibility tests were set-up using a standardized methodology (CLSI M38A). Drugs were diluted into RPMI-Mops medium (Yeast One Broth (Sensititer, product Y3462, Trek Diagnostic Systems, Cleveland, Ohio) Sensititer Lot number 151416SA—expiration date 2011). Two different strains of […] were tested, the standardized evaluation/read out was performed at 24 hours after the start of each culture. The tests were repeated twice and all MIC values (minimum inhibitory concentration) determined as an average of the two experiments.

For data set [2], the system named is Mucorales (Rhizopus lab strain). Nature of the data set: Mold susceptibility test (MIC). It is filed as cell-based. As to conditions: Table 4, read-out at 48 hr, range tested 32 ug/ml to 0.03 ug/ml.
Data set [3] can be described thus: Plasma clearance of Itraconazole and Posaconazole after IV injection in mice. It is filed as in vivo, Swiss Webster mice. The protocol:
To avoid analytical interference from endogenous plasma proteins in the chromatogram when assaying Itra and Posa in plasma samples, an extraction/purification step utilizing precipitation of protein material with acetonitrile was performed. Briefly, plasma proteins were precipitated by adding acetonitrile to a final volume ratio plasma:acetonitrile of 1:2. The mixture was vortexed for 30 seconds and centrifuged for 5 min. at 14,000 rpm in an Eppendorff microcentrifuge. The deproteinated supernatant, containing Itra, was injected into the HPLC to determine the drug concentration.

Data set [4] has as its system Aspergillus fumigatus [LAB-A from patient AF 040 511]. Put plainly: Mold susceptibility test (MIC, CLSI M38A). It is filed as cell-based. The conditions noted are these: at 48 hr, in novel solvent.
Procedure: (§1) The range of drug concentrations tested was 150, 25, 12, 6, 3, 1.5, 0.75, 0.38, 0.19, 0.09, 0.04, and 0 (control) μg/mL. The susceptibility test was set-up using the standard method for filamentous fungi (CLSI, M38A standard). […] Zygomycete (Lab Z) inoculum was made 80% transmission in Saline. […] Posa was supplied at 2.0 mg/ml in vehicle. The Zygomycete was incubated at 33° C. for the first 24 hr to get growth established.
Data set [5] has as its system Rhizomucor sp. [Lab-Z is derived from patient 041511]. Put plainly: Mold susceptibility test (MIC, CLSI M38A). It is filed as cell-based. The conditions noted are these: at 48 hr, in novel solvent.
Procedure: as §1

In brackets after ≈: the same amount, converted by molar mass. Several values for one entry are separate records, joined by “and”; a condition that tells them apart may be missing. Identical values can stand only once. Like-named read-outs stand apart in the source and are kept apart here.

For `CCC(C)n1ncn(-c2ccc(N3CCN(c4ccc(OCC5COC(Cn6cncn6)(c6ccc(Cl)cc6Cl)O5)cc4)CC3)cc2)c1=O` (stereo not drawn) [Itra/D, itraconazole], the MIC was found to be 0.12 µg/mL (≈ 0.17 µM) in data set [1] and 0.6 µg/mL (≈ 0.85 µM) in data set [2].
For `CCC(C)n1ncn(-c2ccc(N3CCN(c4ccc(OCC5COC(Cn6cncn6)(c6ccc(Cl)cc6Cl)O5)cc4)CC3)cc2)c1=O` (stereo not drawn) [Itraconazole, itraconazole], the “plasma concentration, individual” value in data set [3] (5 mg/kg IV, mice, 10 min) was 3860 ng/mL and 3590 ng/mL and 2130 ng/mL; in data set [3] (5 mg/kg IV, mice, 30 min), 1930 ng/mL; in data set [3] (5 mg/kg IV, mice, 120 min), 770 ng/mL. Also, the concentration at 10 min in data set [3] (Swiss Webster, mouse, plasma, intravenous, 5 mg/kg, 5 mg/kg IV, mice, 10 min, read-out: plasma concentration, individual) was found to be 3340 ng/mL; in data set [3] (Swiss Webster, mouse, plasma, intravenous, 5 mg/kg, 5 mg/kg IV, mice, 10 min, read-out: plasma concentration, mean), 3230 ng/mL. For the same compound, the concentration at 30 min in data set [3] (Swiss Webster, mouse, plasma, intravenous, 5 mg/kg, 5 mg/kg IV, mice, 30 min, read-out: plasma concentration, individual) was 1310 ng/mL; in data set [3] (Swiss Webster, mouse, plasma, intravenous, 5 mg/kg, 5 mg/kg IV, mice, 30 min, read-out: plasma concentration, mean), 1620 ng/mL. For the same compound, the concentration at 60 min in data set [3] (Swiss Webster, mouse, plasma, intravenous, 5 mg/kg, 5 mg/kg IV, mice, read-out: plasma concentration, individual) worked out at 770 ng/mL; in data set [3] (Swiss Webster, mouse, plasma, intravenous, 5 mg/kg, 5 mg/kg IV, mice, read-out: plasma concentration, mean), 770 ng/mL. The concentration at 120 min in data set [3] (Swiss Webster, mouse, plasma, intravenous, 5 mg/kg, 5 mg/kg IV, mice, 120 min, read-out: plasma concentration, individual) is 640 ng/mL; in data set [3] (Swiss Webster, mouse, plasma, intravenous, 5 mg/kg, 5 mg/kg IV, mice, 120 min, read-out: plasma concentration, mean), 710 ng/mL.
On to `CC[C@@H]([C@H](C)O)n1ncn(-c2ccc(N3CCN(c4ccc(OC[C@@H]5CO[C@@](Cn6cncn6)(c6ccc(F)cc6F)C5)cc4)CC3)cc2)c1=O` [Posa/D, posaconazole], for which the values for the MIC in data set [1] and in data set [2] were 0.03 µg/mL (≈ 0.0428 µM) and 0.12 µg/mL (≈ 0.171 µM), respectively.
On to `CC[C@@H]([C@H](C)O)n1ncn(-c2ccc(N3CCN(c4ccc(OC[C@@H]5CO[C@@](Cn6cncn6)(c6ccc(F)cc6F)C5)cc4)CC3)cc2)c1=O` [Posaconazole, posaconazole], for which the MIC in data set [4] and in data set [5] was 0.04 µg/mL (≈ 0.0571 µM) throughout. Besides, in data set [3] (5 mg/kg BW in mice, from ten minutes to at least 2 hours after drug injection), the plasma concentration is 3000 to 5000 ng/mL. In addition, the “plasma concentration, individual” value is 3430 ng/mL and 1880 ng/mL and 4590 ng/mL and 4820 ng/mL in data set [3] (5 mg/kg IV, mice, 0.2 hours); 4850 ng/mL and 5030 ng/mL and 4210 ng/mL in data set [3] (5 mg/kg IV, mice, 2.0 hours); 3860 ng/mL in data set [3] (5 mg/kg IV, mice, 7.0 hours); 30 ng/mL and 560 ng/mL and 470 ng/mL in data set [3] (5 mg/kg IV, mice, 24 hours); 140 ng/mL and 290 ng/mL and 40 ng/mL in data set [3] (5 mg/kg IV, mice, 30 hours). Besides, the concentration at 0.2 hours in data set [3] (Swiss Webster, mouse, plasma, intravenous, 5 mg/kg, 5 mg/kg IV, mice, 0.2 hours) was 3680 ng/mL. The concentration at 2 hours in data set [3] (Swiss Webster, mouse, plasma, intravenous, 5 mg/kg, 5 mg/kg IV, mice, 2.0 hours, read-out: plasma concentration, individual) stood at 4990 ng/mL; in data set [3] (Swiss Webster, mouse, plasma, intravenous, 5 mg/kg, 5 mg/kg IV, mice, 2.0 hours, read-out: plasma concentration, mean), 4770 ng/mL. Further, the concentration at 7 hours worked out at 2610 ng/mL in data set [3] (Swiss Webster, mouse, plasma, intravenous, 5 mg/kg, 5 mg/kg IV, mice, 7.0 hours, read-out: plasma concentration, individual) and 3230 ng/mL in data set [3] (Swiss Webster, mouse, plasma, intravenous, 5 mg/kg, 5 mg/kg IV, mice, 7.0 hours, read-out: plasma concentration, mean). In data set [3] (Swiss Webster, mouse, plasma, intravenous, 5 mg/kg, 5 mg/kg IV, mice, 24 hours), this compound showed a concentration at 24 hours of 350 ng/mL. In addition, the concentration at 30 hours in data set [3] (Swiss Webster, mouse, plasma, intravenous, 5 mg/kg, 5 mg/kg IV, mice, 30 hours) amounted to 160 ng/mL.

For orientation: MIC means the lowest concentration that inhibits growth of the organism.
